According to US6492428B1, “Compounds having MIF antagonist activity” (The Picower Institute for Medical Research, priority 2000, dated 2002):
“Also recorded” adds a separate entry of the source. Like-named read-outs stand apart in the source and are kept apart here.

How the values were obtained:
human MIF [1] = biological target: T1, human MIF (Homo sapiens, UniProt P14174); assay: MIF dopachrome tautomerase enzyme inhibition assay; type: biochemical; details: for IC50: MIF 0.7 μg/ml treated 5 minutes, dopachrome methyl ester (1) substrate; for MIF enzyme inhibition activity (in words): dopachrome tautomerase assay; for inhibition at 200 µM: read-out: % inhibition at 200 μM; for effect on MIF enzymatic activity at doses equimolar to MIF monomer: higher MIF concentrations (approximately 0.1 mg/ml and above)
T1 construct: made in house; host or cells: E. coli
T1 sequence (P14174 2-115 limits assumed): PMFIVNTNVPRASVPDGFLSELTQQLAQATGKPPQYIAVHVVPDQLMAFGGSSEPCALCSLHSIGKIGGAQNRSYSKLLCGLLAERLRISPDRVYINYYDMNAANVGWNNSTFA

L6 rat myoblasts = assay: Fructose-2,6-bisphosphate (F2,6BP) induction assay; type: cell-based; details: for induction of F2,6BP production (in words): MIF conjugated with compound, 10 ng/ml; for F2,6BP production: murine MIF 10 ng/ml, untreated or pretreated (conjugated) with compound, control=100%
human MIF [2] = biological target: T1, human MIF; assay: Covalent enzyme modification (SDS-PAGE, MALDI MS, dialysis/gel filtration)
human MIF [3] = biological target: T1, human MIF; assay: MIF tautomerase inhibition in the presence of fetal bovine serum; type: biochemical
recombinant mouse MIF = recombinant mouse MIF (Mus musculus, UniProt P34884); assay: Tautomerase enzyme inactivation of murine MIF before the bioassay
NIH/3T3 cells = assay: MIF-induced arachidonic acid release; type: cell-based; details: cells labeled with 1 μM [14C]-arachidonic acid
Experimental: NIH/3T3 cells were labeled with 1 μM [^14C]-arachidonic acid. After overnight culture, the cells were washed extensively with PBS and then the appropriate samples of MIF or MIF-NAPQI (4) conjugate were added in duplicate. The release of arachidonic acid into the culture medium was then measured.
The effect of MIF-NAPQI (4) conjugate on arachidonic acid release was tested by adding equivalent amounts of either MIF or MIF-NAPQI (4) conjugate to NIH3/3T3 cell cultures that had been pre-equilibrated with radioactive arachidonate, followed by the measurement of arachidonic acid release by scintillation counting. Briefly, NIH/3T3 fibroblasts were labeled with 1 μM [^14C]-arachidonic acid. After overnight culture, the cells were washed extensively with PBS, and the appropriate samples of MIF or MIF-NAPQI (4) conjugate were added in duplicate. The release of arachidonic acid into medium was then measured as described previously (Mitchell et al., J. Biol. Chem., 274:18100-18106, 1999).

anti-MIF antibodies = assay: Cross-reactivity with anti-MIF antibodies (ELISA); type: binding; details: for recognition by anti-MIF antibodies (in words): MIF incubated with NAPQI (4) versus unmodified MIF
Experimental: FIG. 7 illustrates the loss of immunological crossreactivity with anti-MIF antibodies following incubation of MIF with NAPQI (4).
(iii) Cross-reactivity with anti-MIF antibodies. […] Without being bound by mechanism, and in view of the lack of bioactivity of the MIF-NAPQI (4) conjugate in the above arachidonic acid release and F2,6BP induction assays, it is likely that NAPQI (4) conjugation induces distortion of the MIF peptide conformation. This distortion also renders the MIF-NAPQI (a) (4) conjugate non-crossreactive with anti-MIF Mab.
The presence of such structural changes was further explored by characterizing the binding of additional MIF-specific antibodies (Picower Institute clones XIV. 14.3, III.D.9 and XIV. 15.5, which differ in their epitope recognition and activity to inhibit biologically active MIF), using a standard ELISA technique. In a standardized sandwich ELISA specific for MIF Meinhardt et al., Endocrinology, 137:5090-5095, 1996), an equivalent amount of MIF-NAPQI (4) conjugate (as indicated by protein concentration) was recognized 7-fold less than purified recombinant MIF that had not been exposed to NAPQI (4) (FIG. 7). Again, without being bound by mechanism, this loss of cross-reactivity of MIF-NAPQI (4) was most likely due to remote structural changes in MIF induced by covalent attachment of NAPQI (4). These structural changes might, in turn, account for the lack of bioactivities of MIF-NAPQI (4) and MIF-N-acetyl-3-hydroxy-p-benzoquinone imine (6) conjugates in the F2,6BP induction assay, and for the lack of bioactivity of MIF-NAPQI (4) conjugate in the arachidonic acid release assay.

Molecule: O=C(O)C1=CC(=O)C(=O)C=C1 [Compound 14]
- IC50 (human MIF [1]): 4 µM

Molecule: COc1cc(NC(C)=O)ccc1O [Compound 10]
- MIF enzyme inhibition activity (in words) (human MIF [1]): little, if any
- inhibition at 200 µM (human MIF [1]; 200 μM compound, MIF 0.7 μg/ml, 5 minutes): 0%

Molecule: iodoacetamide [Compound 17, reference compound]
- % inhibition at 500 μM (human MIF [1]; 500 μM compound, MIF 0.7 μg/ml, 5 minutes): 0% inhibition at 500 μM
- MIF enzyme inhibition activity (in words) (human MIF [1]): No inhibitory activity

Molecule: CC(=O)N=C1C=CC(=O)C(C)=C1 [Compound 7]
- IC50 (human MIF [1]): 35 µM

Molecule: CCN1C(=O)C=CC1=O [Compound 18, N-ethylmaleimide, reference compound]
- MIF enzyme inhibition activity (in words) (human MIF [1]): No inhibitory activity
- inhibition at 500 µM (human MIF [1]; read-out: % inhibition at 500 μM): 0%

Molecule: COC1=CC(=NC(C)=O)C=CC1=O [Compound 11]
- IC50 (human MIF [1]): 25 µM

Molecule: O=C(O)/C=C/C1=CC(=O)C(=O)C=C1 [Compound 16]
- IC50 (human MIF [1]): 0.3 µM
- MIF enzyme inhibition activity (in words) (human MIF [1]): sub-micromolar
- effect on MIF enzymatic activity at doses equimolar to MIF monomer (human MIF [1]): virtually eliminated

Molecule: CC(=O)N=C1C=CC(=O)C(O)=C1 [Compound 6, N-acetyl-3-hydroxy-p-benzoquinone imine]
- induction of F2,6BP production (in words) (L6 rat myoblasts): fail to induce
- F2,6BP production (L6 rat myoblasts): 105 % of control
- IC50 (human MIF [1]): 0.7 µM
- enzyme activity lost (human MIF [1]; MIF 2.8 μM (0.1 mg/ml, 8.4 μM monomer), compound at 7 μM (0.83 equivalents based on monomer)): 93%
- enzyme activity lost (in words) (human MIF [1]; MIF 0.1 mg/ml, 1.7 equivalents/monomer): All
- MIF enzyme inhibition activity (in words) (human MIF [1]): potent inhibitors; also recorded: sub-micromolar
- effect on MIF enzymatic activity at doses equimolar to MIF monomer (human MIF [1]): virtually eliminated
- more potent than dihydroquinone-like analog 5 (human MIF [1]; ratio of IC50 values versus compound 5): more than 715 fold

Molecule: O=C(O)/C=C/c1ccc(O)c(O)c1 [Compound 15]
- MIF enzyme inhibition activity (in words) (human MIF [1]): little, if any

Molecule: CC(=O)Nc1ccc(O)c(O)c1 [Compound 5]
- IC50 (human MIF [1]): 500 µM
- MIF enzyme inhibition activity (in words) (human MIF [1]): little, if any

Molecule: CC(=O)N=C1C(C)=CC(=O)C=C1C [Compound 9]
- IC50 (human MIF [1]): 200 µM

Molecule: CC(=O)N=C1C=C(C)C(=O)C(C)=C1 [Compound 8]
- IC50 (human MIF [1]): 120 µM

Molecule: CC(=O)N=C1C=CC(=O)C=C1 [Compound 4, N-Acetyl-p-benzoquinone imine]
- restoration of enzymatic activity by dialyzing or gel filtering inactivated MIF (human MIF [2]; MIF inactivated with compound, data not shown): not possible to restore enzymatic activity
- chemical modification of MIF (in words) (human MIF [2]; SDS-PAGE and MALDI mass spectra of treated MIF): stable, covalent conjugates
- fetal bovine serum concentration at which loss in inhibitory activity became detectable (human MIF [3]; MIF 0.72 μg/ml, compound 0.2 mM): 25%
- inhibition of MIF in the presence of serum proteins (in words) (human MIF [3]; MIF 0.72 μg/ml, compound 0.2 mM, 20 minutes): occurred even in the presence of serum proteins
- inhibition at 200 µM (human MIF [3]; read-out: residual inhibitory activity): 31%
- induction of F2,6BP production (in words) (L6 rat myoblasts): fail to induce
- F2,6BP production (L6 rat myoblasts): 94 % of control
- inhibition of enzymatic activity (human MIF [1]): 69%
- MIF enzyme inhibition activity (in words) (human MIF [1]): potent inhibitor
- inhibition at 49.5 µM (human MIF [1]; read-out: enzyme inhibition): 37%
- inhibition at 190 µM (human MIF [1]; read-out: enzyme inhibition): 94%
- inhibition at 500 µM (human MIF [1]; read-out: enzyme inhibition): 100%
- inhibition of enzyme activity / enzyme inactivation (recombinant mouse MIF; mouse MIF pretreated with 167 μM compound): 96%
- inhibition at 167 µM (recombinant mouse MIF; read-out: inhibition of enzyme activity / enzyme inactivation, mouse MIF pretreated with 167 μM compound): 98%

Molecule: O=C(O)c1ccc(O)c(O)c1 [Compound 13]
- MIF enzyme inhibition activity (in words) (human MIF [1]): little, if any
- inhibition at 200 µM (human MIF [1]): 24%

Molecule: CC(=O)Nc1ccc(O)cc1 [Compound 3, acetaminophen, reference compound]
- IC50 (human MIF [1]): 10000 µM

B1: MIF-NAPQI (4) conjugate: stable covalent conjugate formed when MIF is treated with NAPQI (4) (conjugate, UniProt P14174 2-115, looked up)
Macrophage migration …: T1 sequence (P14174 2-115 limits assumed)
modifications: covalent NAPQI adduct
- induction of arachidonic acid release (in words) (NIH/3T3 cells): did not induce; also recorded: does not induce
- arachidonic acid released into culture supernatant relative to cultures treated with MIF (NIH/3T3 cells; equivalent amounts of MIF or conjugate): less than 1/10
- induction of F2,6BP production (in words) (L6 rat myoblasts): failed to induce
- recognition by anti-MIF antibodies (in words) (anti-MIF antibodies): fail to recognize
- recognition by anti-MIF antibodies (in words) (anti-MIF antibodies; listed as MIF-NAPQI conjugate): significantly less
- recognition in sandwich ELISA, less than unmodified recombinant MIF (anti-MIF antibodies; equivalent amount by protein concentration, standardized sandwich ELISA specific for MIF): 7 fold
